Data from PubChem BioAssay AID248 (DTP/NCI, 2004).
Where “and” joins values, the source holds several entries; their conditions need not be identical. Identical values can stand only once. Toxic doses and inconclusive results are not listed.

System: L1210 leukemia ip in BDF1 mice, survival T/C
Assay: NCI In Vivo Anticancer Drug Screen. Data for tumor model L1210 Leukemia (intraperitoneal) in B6D2F1 (BDF1) mice
Conditions: higher = longer survival
In short: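 Transplanted-tumor mice were given test agent; controls received vehicle only. Survival readings from the two groups were divided (treated over control).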

Nc1nc(=S)c2ncn(C3CC(O)C(CO)O3)c2[nH]1 (stereo unspecified)
T/C (endpoint: mean survival time, dose: 0.15 mg/kg/injection, schedule: Q01DX015 (ip), vehicle: carboxymethylcellulose (CMC)): 121 % of control
T/C (endpoint: mean survival time, dose: 0.31 mg/kg/injection, schedule: Q01DX009 (ip), vehicle: saline): 119 % of control
T/C (endpoint: mean survival time, dose: 0.32 mg/kg/injection, schedule: Q01DX015 (ip), vehicle: carboxymethylcellulose (CMC)): 124 % of control
T/C (endpoint: mean survival time, dose: 0.62 mg/kg/injection, schedule: Q01DX005 (ip), vehicle: clinical formulation): 153 % of control
T/C (endpoint: mean survival time, dose: 0.62 mg/kg/injection, schedule: Q01DX009 (ip), vehicle: saline): 150 % of control
T/C (endpoint: mean survival time, dose: 0.62 mg/kg/injection, schedule: Q01DX015 (ip), vehicle: carboxymethylcellulose (CMC)): 151 % of control
T/C (endpoint: mean survival time, dose: 0.63 mg/kg/injection, schedule: Q03HX008 (ip), vehicle: saline): 162 % of control
T/C (endpoint: mean survival time, dose: 0.63 mg/kg/injection, schedule: Q03HX024 (ip), vehicle: saline): 167 % of control
T/C (endpoint: mean survival time, dose: 0.9 mg/kg/injection, schedule: Q01DX009 (ip), vehicle: saline with Tween-80): 150 % of control
T/C (endpoint: mean survival time, dose: 1.25 mg/kg/injection, schedule: Q01DX005 (ip), vehicle: clinical formulation): 150 % of control and 171 % of control
T/C (endpoint: mean survival time, dose: 1.25 mg/kg/injection, schedule: Q01DX005 (ip), vehicle: saline): 154 % of control
T/C (endpoint: mean survival time, dose: 1.25 mg/kg/injection, schedule: Q01DX005 (ip), vehicle: water): 163 % of control
T/C (endpoint: mean survival time, dose: 1.25 mg/kg/injection, schedule: Q01DX009 (ip), vehicle: saline): 156 % of control
T/C (endpoint: mean survival time, dose: 1.25 mg/kg/injection, schedule: Q01DX015 (ip), vehicle: carboxymethylcellulose (CMC)): 180 % of control and 218 % of control
T/C (endpoint: mean survival time, dose: 1.25 mg/kg/injection, schedule: Q03HX008 (ip), vehicle: saline): 155 % of control
T/C (endpoint: mean survival time, dose: 1.25 mg/kg/injection, schedule: Q03HX016 (ip), vehicle: saline): 163 % of control
T/C (endpoint: mean survival time, dose: 1.25 mg/kg/injection, schedule: Q03HX024 (ip), vehicle: saline): 157 % of control
T/C (endpoint: mean survival time, dose: 1.56 mg/kg/injection, schedule: Q01DX009 (ip), vehicle: saline): 161 % of control and 173 % of control
T/C (endpoint: mean survival time, dose: 1.87 mg/kg/injection, schedule: Q01DX015 (ip), vehicle: carboxymethylcellulose (CMC)): 113 % of control
T/C (endpoint: mean survival time, dose: 2.5 mg/kg/injection, schedule: Q01DX001 (ip), vehicle: saline): 120 % of control
T/C (endpoint: mean survival time, dose: 2.5 mg/kg/injection, schedule: Q01DX002 (ip), vehicle: Klucel (hydroxypropylcellulose) (HPC)): 177 % of control
T/C (endpoint: mean survival time, dose: 2.5 mg/kg/injection, schedule: Q01DX005 (ip), vehicle: clinical formulation): 173 % of control and 178 % of control
T/C (endpoint: mean survival time, dose: 2.5 mg/kg/injection, schedule: Q01DX005 (ip), vehicle: saline): 171 % of control
T/C (endpoint: mean survival time, dose: 2.5 mg/kg/injection, schedule: Q01DX005 (ip), vehicle: water): 173 % of control
T/C (endpoint: mean survival time, dose: 2.5 mg/kg/injection, schedule: Q01DX009 (ip), vehicle: saline): 161 % of control
T/C (endpoint: mean survival time, dose: 2.5 mg/kg/injection, schedule: Q01DX015 (ip), vehicle: carboxymethylcellulose (CMC)): 155 % of control and 187 % of control
T/C (endpoint: mean survival time, dose: 2.5 mg/kg/injection, schedule: Q03HX008 (ip), vehicle: saline): 156 % of control
T/C (endpoint: mean survival time, dose: 2.5 mg/kg/injection, schedule: Q03HX016 (ip), vehicle: saline): 167 % of control
T/C (endpoint: mean survival time, dose: 2.5 mg/kg/injection, schedule: Q04DX003 (ip), vehicle: saline): 155 % of control
T/C (endpoint: mean survival time, dose: 2.5 mg/kg/injection, schedule: Q08DX002 (ip), vehicle: saline): 124 % of control
T/C (endpoint: mean survival time, dose: 3.12 mg/kg/injection, schedule: Q01DX009 (ip), vehicle: saline): 191 % of control and 206 % of control
T/C (endpoint: mean survival time, dose: 4.5 mg/kg/injection, schedule: Q01DX009 (ip), vehicle: saline with Tween-80): 208 % of control
T/C (endpoint: mean survival time, dose: 5.0 mg/kg/injection, schedule: Q01DX005 (ip), vehicle: clinical formulation): 166 % of control and 202 % of control
T/C (endpoint: mean survival time, dose: 5.0 mg/kg/injection, schedule: Q01DX005 (ip), vehicle: saline): 158 % of control
T/C (endpoint: mean survival time, dose: 5.0 mg/kg/injection, schedule: Q01DX005 (ip), vehicle: water): 192 % of control
T/C (endpoint: mean survival time, dose: 5.0 mg/kg/injection, schedule: Q01DX009 (ip), vehicle: saline): 156 % of control
T/C (endpoint: mean survival time, dose: 5.0 mg/kg/injection, schedule: Q01DX015 (ip), vehicle: carboxymethylcellulose (CMC)): 166 % of control
T/C (endpoint: mean survival time, dose: 5.0 mg/kg/injection, schedule: Q03HX024 (ip), vehicle: saline): 97 % of control
T/C (endpoint: mean survival time, dose: 5.0 mg/kg/injection, schedule: Q04DX003 (ip), vehicle: saline): 152 % of control
T/C (endpoint: mean survival time, dose: 6.0 mg/kg/injection, schedule: Q01DX005 (oral), vehicle: saline): 108 % of control
T/C (endpoint: mean survival time, dose: 6.25 mg/kg/injection, schedule: Q01DX009 (ip), vehicle: saline): 153 % of control
T/C (endpoint: mean survival time, dose: 7.0 mg/kg/injection, schedule: Q01DX015 (ip), vehicle: carboxymethylcellulose (CMC)): 150 % of control
T/C (endpoint: mean survival time, dose: 7.5 mg/kg/injection, schedule: Q01DX015 (ip), vehicle: carboxymethylcellulose (CMC)): 151 % of control
T/C (endpoint: mean survival time, dose: 10.0 mg/kg/injection, schedule: Q01DX005 (ip), vehicle: clinical formulation): 154 % of control and 198 % of control
T/C (endpoint: mean survival time, dose: 10.0 mg/kg/injection, schedule: Q01DX005 (ip), vehicle: saline): 219 % of control
T/C (endpoint: mean survival time, dose: 10.0 mg/kg/injection, schedule: Q01DX005 (ip), vehicle: water): 156 % of control
T/C (endpoint: mean survival time, dose: 10.0 mg/kg/injection, schedule: Q01DX009 (ip), vehicle: saline): 95 % of control
T/C (endpoint: mean survival time, dose: 10.0 mg/kg/injection, schedule: Q01DX015 (ip), vehicle: carboxymethylcellulose (CMC)): 114 % of control
T/C (endpoint: mean survival time, dose: 10.0 mg/kg/injection, schedule: Q03HX008 (ip), vehicle: saline): 86 % of control
T/C (endpoint: mean survival time, dose: 10.0 mg/kg/injection, schedule: Q04DX003 (ip), vehicle: Klucel (hydroxypropylcellulose) (HPC)): 156 % of control
T/C (endpoint: mean survival time, dose: 10.0 mg/kg/injection, schedule: Q04DX003 (ip), vehicle: saline): 170 % of control
T/C (endpoint: mean survival time, dose: 10.0 mg/kg/injection, schedule: Q08DX002 (ip), vehicle: saline): 154 % of control
T/C (endpoint: mean survival time, dose: 12.0 mg/kg/injection, schedule: Q01DX005 (oral), vehicle: saline): 116 % of control
T/C (endpoint: mean survival time, dose: 15.0 mg/kg/injection, schedule: Q01DX015 (ip), vehicle: carboxymethylcellulose (CMC)): 106 % of control and 155 % of control and 236 % of control
T/C (endpoint: mean survival time, dose: 20.0 mg/kg/injection, schedule: Q01DX002 (ip), vehicle: Klucel (hydroxypropylcellulose) (HPC)): 115 % of control
T/C (endpoint: mean survival time, dose: 20.0 mg/kg/injection, schedule: Q01DX005 (ip), vehicle: saline): 97 % of control
T/C (endpoint: mean survival time, dose: 20.0 mg/kg/injection, schedule: Q04DX003 (ip), vehicle: saline): 190 % of control
T/C (endpoint: mean survival time, dose: 20.0 mg/kg/injection, schedule: Q08DX002 (ip), vehicle: saline): 157 % of control
T/C (endpoint: mean survival time, dose: 25.0 mg/kg/injection, schedule: Q01DX009 (ip), vehicle: saline): 94 % of control
T/C (endpoint: mean survival time, dose: 40.0 mg/kg/injection, schedule: Q04DX003 (ip), vehicle: Klucel (hydroxypropylcellulose) (HPC)): 150 % of control
T/C (endpoint: mean survival time, dose: 40.0 mg/kg/injection, schedule: Q08DX002 (ip), vehicle: saline): 168 % of control
T/C (endpoint: mean survival time, dose: 50.0 mg/kg/injection, schedule: Q01DX005 (ip), vehicle: saline): 90 % of control
T/C (endpoint: mean survival time, dose: 50.0 mg/kg/injection, schedule: Q01DX009 (ip), vehicle: saline): 86 % of control
T/C (endpoint: mean survival time, dose: 60.0 mg/kg/injection, schedule: Q04DX003 (oral), vehicle: saline): 120 % of control
T/C (endpoint: mean survival time, dose: 80.0 mg/kg/injection, schedule: Q08DX002 (ip), vehicle: saline): 153 % of control
T/C (endpoint: mean survival time, dose: 96.0 mg/kg/injection, schedule: Q01DX005 (oral), vehicle: saline): 91 % of control
T/C (endpoint: mean survival time, dose: 100.0 mg/kg/injection, schedule: Q01DX005 (ip), vehicle: saline): 155 % of control
T/C (endpoint: mean survival time, dose: 120.0 mg/kg/injection, schedule: Q04DX003 (oral), vehicle: saline): 113 % of control
T/C (endpoint: mean survival time, dose: 125.0 mg/kg/injection, schedule: Q01DX015 (ip), vehicle: carboxymethylcellulose (CMC)): 114 % of control
T/C (endpoint: mean survival time, dose: 145.0 mg/kg/injection, schedule: Q01DX001 (ip), vehicle: saline with Tween-80): 160 % of control
T/C (endpoint: mean survival time, dose: 240.0 mg/kg/injection, schedule: Q04DX003 (oral), vehicle: saline): 119 % of control
T/C (endpoint: mean survival time, dose: 250.0 mg/kg/injection, schedule: Q01DX015 (ip), vehicle: carboxymethylcellulose (CMC)): 96 % of control
T/C (endpoint: mean survival time, dose: 480.0 mg/kg/injection, schedule: Q04DX003 (oral), vehicle: saline): 96 % of control
T/C (endpoint: mean survival time, dose: 960.0 mg/kg/injection, schedule: Q08DX002 (oral), vehicle: saline): 100 % of control
T/C (endpoint: median survival time, dose: 0.06 mg/kg/injection, schedule: Q03HX024 (ip), vehicle: saline): 112 % of control
T/C (endpoint: median survival time, dose: 0.07 mg/kg/injection, schedule: Q03HX024 (ip), vehicle: saline): 112 % of control
T/C (endpoint: median survival time, dose: 0.12 mg/kg/injection, schedule: Q03HX024 (ip), vehicle: saline): 121 % of control
T/C (endpoint: median survival time, dose: 0.13 mg/kg/injection, schedule: Q03HX024 (ip), vehicle: saline): 121 % of control
T/C (endpoint: median survival time, dose: 0.5 mg/kg/injection, schedule: Q03HX024 (ip), vehicle: saline): 101 % of control
T/C (endpoint: median survival time, dose: 1.0 mg/kg/injection, schedule: Q03HX024 (ip), vehicle: saline): 104 % of control
T/C (endpoint: median survival time, dose: 32.0 mg/kg/injection, schedule: Q03HX024 (ip), vehicle: saline): 153 % of control
